Assay [1] has as its system HUVEC cells. Kind of assay: HUVEC apoptosis and proliferation (Caspase-3, Phospho-histone H3 immunostaining). In kind it is cell-based, human. The note with it: cultured on 0.1% gelatin. From the text:
FIG. 18. TBZ treatment (A) increases apoptosis and (B) decreases proliferation of HUVEC cells cultured on 0.1% gelatin, but only by approximately 2-fold. Both changes are significant under a t test (p=0.015, p=0.01, respectively). Error bars represent mean±1 s.d. across 14-16 fields of view of 200× magnification confocal microscopy cell images across 2-3 independent experiments. Scale bar, 100 μm.
Control cells received 1% DMSO.

Assay [2] relates to mitochondria. Kind of assay: Mitochondrial mass and membrane potential (MitoTracker Green/Red). In kind it is cell-based.

Structures are written as SMILES.

Regarding `c1ccc2[nH]c(-c3cscn3)nc2c1` [TBZ, 4-(1H-1,3-benzodiazol-2-yl)-1,3-thiazole], the “decrease of proliferation of HUVEC cells” value in assay [1] (p=0.01) is “approximately 2 fold”. In addition, in assay [1] (p=0.015), the “increase of apoptosis of HUVEC cells” value is “approximately 2 fold”. In addition, in assay [2], the “mitochondrial mass (MitoTracker Green signal)” value is given as “no differences” and the “mitochondrial membrane potential (ratio of MitoTracker Red signal to Mitotracker Green signal)” value is given as “no differences”.

These data come from patent US20140303216A1, “COMPOSITIONS AND METHODS FOR INDUCING DISRUPTION OF BLOOD VASCULATURE AND FOR REDUCING ANGIOGENESIS” (BOARD OF REGENTS, THE UNIVERSITY OF TEXAS SYSTEM, priority 2011, published 2014).
